Measurements reported in patent publication US20230416329A1, “A PEPTIDE WITH DISULFIDE BONDS AND INHIBITORY ACTIVITY AGAINST SERINE PROTEASES, DERIVED HYBRID PEPTIDES THEREOF, AND USES THEREOF” (INSTITUTE OF MATERIA MEDICA , CHINESE ACADEMY OF MEDICAL …, priority 2020, published 2023).
In brackets after ≈: the same amount, converted by molar mass. Bridge positions count the residues as written; N and C are the ends. Peptide text beside a SMILES is read from it.

How the values were obtained:
elastase = elastase (Sus scrofa, UniProt P00772); experiment: in vitro; settings: for remaining at 0.025 h, 60 μM / remaining at 0.05 h, 60 μM / remaining at 0.075 h, 60 μM / remaining at 0.1 h, 60 μM / remaining at 0.15 h, 60 μM / remaining at 0.25 h, 60 μM / remaining at 0.5 h, 60 μM / remaining at 1 h, 60 μM: isolated enzyme elastase, pH 8, Residual peak area (%)/elastase
How it was run: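 Peptides and elastase (0.5 μg/μL solution) each pre-warmed 5 min at 37° C, then mixed; aliquots taken at 1.5 to 60.0 min and quenched with 10% TFA. Remaining intact peptide quantified as RP-HPLC peak area.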

[1] = test system: P407-induced hyperlipidemia mice; experiment: Subcutaneous injection of PCSK9 inhibitory peptide, serum total cholesterol in P407-induced hyperlipidemia mice; type: in vivo, mouse
Procedure: The experimental peptide sample was prepared using PEG400 with a final concentration of […], and the final concentration of PEG400 is 20% (w/v). Normal ICR mice were fasted overnight with water ad libitum. The next day, all of the mice were randomly divided into model control group (Con) and polypeptide administration group (2 μmol/kg) according to body weight. Then, all of the mice were intraperitoneally injected with P407 (500 mg/kg) and fed with feed 2 hours later. Six mice were taken as a normal control group (Nor). After 24 hours, the mice in Con were subcutaneously injected with saline containing 20% PEG400, and the mice in the treatment group were given peptides. Then, the blood was taken at different time points after administration to determine the serum total cholesterol (TC) level. In consideration of the complexity of factors affecting serum LDL-C levels, especially the differences between single and long-term administration, the in vivo activity of PCSK9 inhibitory peptide is mainly observed for changes in serum TC levels.

chymotrypsin = chymotrypsin (Bos taurus, UniProt P00766); experiment: in vitro; settings: for remaining at 0.025 h, 60 μM / remaining at 0.05 h, 60 μM / remaining at 0.075 h, 60 μM / remaining at 0.1 h, 60 μM / remaining at 0.15 h, 60 μM / remaining at 0.25 h, 60 μM / remaining at 0.5 h, 60 μM / remaining at 1 h, 60 μM: isolated enzyme chymotrypsin, pH 7.8, Residual peak area (%)/chymotrypsin
How it was run: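 Peptide and 0.05 μg/μL chymotrypsin were preincubated at 37 °C for 5 min, then mixed. Aliquots taken from 1.5 up to 60.0 min were quenched with 10% TFA, and remaining peptide was measured as RP-HPLC peak area.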

trypsin = target: T1, trypsin (Bos taurus, UniProt P00760); experiment: in vitro
T1 sequence (P00760 24-246): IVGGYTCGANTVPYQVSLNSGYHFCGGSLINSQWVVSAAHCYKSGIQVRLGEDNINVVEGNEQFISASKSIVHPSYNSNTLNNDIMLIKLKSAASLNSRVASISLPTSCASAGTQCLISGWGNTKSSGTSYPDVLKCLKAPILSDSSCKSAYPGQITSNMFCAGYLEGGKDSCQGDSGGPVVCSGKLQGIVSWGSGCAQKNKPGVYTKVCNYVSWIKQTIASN
How it was run: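 Peptides were preincubated for 5 min at 37 °C and then digested with 0.05 μg/μL trypsin solution (stock). Remaining intact peptide was quantified as RP-HPLC peak area.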

[2] = target: T2, interaction of PCSK9-LDLR (Homo sapiens, UniProt Q8NBP7); experiment: PCSK9-LDLR in vitro binding assay (inhibitory rate); settings: sample 50 μM, PCSK9 75 ng/mL
T2 construct: purchased MBL Company, Beijing, China CY-8150
Procedure: Polypeptide PCSK9_1-14 (SEQ ID NOs: 210-223) is dissolved in pure water or DMSO. 85 μL reaction buffer, 5 μL 1 mM polypeptide sample and 10 μL 750 ng/mL PCSK9 protein was pre-incubated at room temperature for 20 minutes before being added to a 96 well plate. The OD450/540 nm value was measured according to the instructions of the PCSK9-LDLR in Vitro Binding Assay Kit (CY-8150, MBL Company, Beijing, China). Solvent control: replace polypeptide with 5 μL solvent. In 100 μL reaction system, the final concentration of the polypeptide and PCSK9 is 50 μM and 75 ng/mL, respectively.
Inhibition rate of polypeptide (%)=(OD450/540 nm(solvent control)−OD450/540 nm (sample))/OD450/540 nm(solvent control)×100

normal ICR mice = experiment: In vivo hypoglycemic activity of GLP-1 analogues, subcutaneous administration, oral glucose loading; parameters: species or system mouse; settings: normal ICR mice, 1 μmol/kg s.c., glucose 2 g/kg by gavage
Procedure: FIG. 21. In vivo hypoglycemic activities of GLP-1 analogues by subcutaneous administration. Normal ICR mice were subcutaneously injected with GLP-1 and its analogues or corresponding volumes of saline (1.0 μmol/kg, n=10). After 30 min, glucose solution (2 g/kg) was administered by gavage, and blood was collected from the tail tip at 30, 60, and 120 min after glucose administration. Blood glucose was measured using glucose oxidase method, and blood glucose values and area under the blood glucose curve (AUC) were calculated at each timepoint.
The day before the experiment, all of the animals were fasted for 15-16 hours with water ad libitum. On the day of the experiment, the animals were randomly divided according to body weight (n=10). Firstly, the blood was collected from the tail tip at 0 hour, and then the animals were administered subcutaneously with GLP-1 analog (SEQ ID NOs: 194-201, 1 μmol/kg) or saline. After 30 minutes, the animals were administered by gavage with glucose solution (2 g/kg), and the blood was collected from the tail tip at 30, 60, and 120 minutes later. Blood glucose was measured using glucose oxidase method. The blood glucose and area under the blood glucose-time curve (AUC) were calculated.

Chain of elastase (P00772 27-266): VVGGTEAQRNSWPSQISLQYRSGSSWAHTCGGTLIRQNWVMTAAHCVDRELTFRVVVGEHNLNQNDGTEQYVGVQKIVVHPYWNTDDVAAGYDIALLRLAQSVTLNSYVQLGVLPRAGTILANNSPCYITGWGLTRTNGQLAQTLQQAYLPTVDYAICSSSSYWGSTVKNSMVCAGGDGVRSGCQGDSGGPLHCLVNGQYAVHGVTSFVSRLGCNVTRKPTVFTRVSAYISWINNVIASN
T2 sequence (Q8NBP7 153-692): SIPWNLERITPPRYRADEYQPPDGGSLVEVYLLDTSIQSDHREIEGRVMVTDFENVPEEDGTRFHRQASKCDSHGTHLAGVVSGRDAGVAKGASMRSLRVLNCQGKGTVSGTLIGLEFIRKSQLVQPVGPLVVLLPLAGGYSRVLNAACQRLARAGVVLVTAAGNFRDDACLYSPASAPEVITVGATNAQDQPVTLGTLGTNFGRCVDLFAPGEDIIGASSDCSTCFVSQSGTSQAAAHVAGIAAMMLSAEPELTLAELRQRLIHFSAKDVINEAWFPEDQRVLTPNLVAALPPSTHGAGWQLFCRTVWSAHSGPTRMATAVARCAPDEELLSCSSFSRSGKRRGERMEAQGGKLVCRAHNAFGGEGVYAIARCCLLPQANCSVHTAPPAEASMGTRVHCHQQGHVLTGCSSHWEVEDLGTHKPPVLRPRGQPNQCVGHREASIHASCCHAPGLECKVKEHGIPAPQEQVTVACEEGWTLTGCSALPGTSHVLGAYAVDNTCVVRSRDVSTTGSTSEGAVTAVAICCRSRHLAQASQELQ
T2 sequence (Q8NBP7 31-152 partner limits assumed): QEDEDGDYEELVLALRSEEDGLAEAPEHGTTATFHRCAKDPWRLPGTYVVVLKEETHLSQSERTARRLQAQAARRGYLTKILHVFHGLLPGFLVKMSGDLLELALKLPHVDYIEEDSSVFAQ

Residual peak area (%)/elastase (elastase) [%]	remaining at 0.025 h, 60 μM (elastase) [%]	remaining at 0.05 h, 60 μM (elastase) [%]	remaining at 0.075 h, 60 μM (elastase) [%]	remaining at 0.1 h, 60 μM (elastase) [%]	remaining at 0.15 h, 60 μM (elastase) [%]	remaining at 0.25 h, 60 μM (elastase) [%]	remaining at 0.5 h, 60 μM (elastase) [%]	remaining at 1 h, 60 μM (elastase) [%]	Residual peak area (%)/chymotrypsin (chymotrypsin) [%]	remaining at 0.025 h, 60 μM (chymotrypsin) [%]	remaining at 0.05 h, 60 μM (chymotrypsin) [%]	remaining at 0.075 h, 60 μM (chymotrypsin) [%]	remaining at 0.1 h, 60 μM (chymotrypsin) [%]	remaining at 0.15 h, 60 μM (chymotrypsin) [%]	remaining at 0.25 h, 60 μM (chymotrypsin) [%]	remaining at 0.5 h, 60 μM (chymotrypsin) [%]	Compound	stability towards elastase hydrolysis (in words) (elastase)	stability towards chymotrypsin hydrolysis (in words) (chymotrypsin)	hypoglycemic activity, subcutaneous injection (in words) (normal ICR mice)	other results
100.0 ± 0.0	95.4 ± 0.9	90.6 ± 2.4	83.3 ± 1.8	85.5 ± 2.7	79.6 ± 0.8	66.8 ± 0.8	52.9 ± 1.5	28.9 ± 0.7	100.0 ± 0.0	82.3 ± 5	80.7 ± 3.3	80.1 ± 2	79.1 ± 5.6	75.5 ± 1.6	71.2 ± 2.4	62.7 ± 2.6	CC(C)C[C@H](NC(=O)[C@H](Cc1ccc(O)cc1)NC(=O)[C@H](CCC(=O)O)NC(=O)[C@H](CCC(=O)O)NC(=O)[C@H](Cc1c[nH]c2ccccc12)NC(=O)[C@H](CO)NC(=O)[C@@H](NC(=O)[C@H](Cc1ccccc1)NC(=O)[C@@H](NC(=O)[C@@H](N)[C@@H](C)O)C(C)C)[C@@H](C)O)C(=O)N[C@@H](CC(=O)O)C(=O)N[C@@H](Cc1c[nH]c2ccccc12)C(=O)N[C@H](C(=O)O)C(C)C [PCSK9_1, reference compound]	easily degraded by chymotrypsin and elastase	easily degraded by chymotrypsin and elastase	–	serum total cholesterol (TC) level after subcutaneous injection (in words) ([1]; 2 μmol/kg single s.c., P407-induced hyperlipidemia mice): little effect on lowering total cholesterol; TC 30 min ([1]; serum, subcutaneous 2 μmol/kg, 30 min after administration, mean ± sd): 3925 ± 1330 µg/mL (≈ 2340 µM); TC 60 min ([1]; serum, subcutaneous 2 μmol/kg, 60 min after administration, mean ± sd): 3350 ± 1117 µg/mL (≈ 2000 µM); TC 90 min ([1]; serum, subcutaneous 2 μmol/kg, 90 min after administration, mean ± sd): 3832 ± 1259 µg/mL (≈ 2290 µM); TC 120 min ([1]; serum, subcutaneous 2 μmol/kg, 120 min after administration, mean ± sd): 370.4 ± 122.3 mg/dL; remaining at 1 h, 60 μM (chymotrypsin): 47.7 ± 2%; stability towards trypsin hydrolysis (in words) (trypsin): stable towards trypsin; inhibition at 50 µM [2]: 26 ± 10%
100.0 ± 0.0	62.9 ± 4.8	59.3 ± 10.9	56.4 ± 5.3	55.3 ± 6.8	67.8 ± 9.3	48.9 ± 9.4	39.6 ± 1.2	48.3 ± 9.4	100.0 ± 0.0	59.9 ± 8.2	47.1 ± 8	33.6 ± 3	33.9 ± 3.2	25.9 ± 3.3	14.5 ± 0.8	2.2 ± 0.1	CC[C@H](C)[C@@H]1NC(=O)[C@@H]2CCCN2C(=O)[C@@H]2CCCN2C(=O)[C@H]([C@@H](C)CC)NC(=O)[C@H](CO)NC(=O)[C@H](CCCCN)NC(=O)[C@H]([C@@H](C)O)NC(=O)[C@H](C)NC(=O)[C@H](CCCNC(=N)N)NC(=O)CNC(=O)[C@@H](NC(=O)[C@@H](NC(=O)[C@H](Cc2ccc(O)cc2)NC(=O)[C@H](CC(=O)O)NC(=O)[C@H](CC(C)C)NC(=O)[C@H](Cc2ccc(O)cc2)NC(=O)[C@H](CCC(=O)O)NC(=O)[C@H](CCC(=O)O)NC(=O)[C@@H](N)Cc2c[nH]c3ccccc23)C(C)C)CSSC[C@@H](C(=O)N[C@@H](Cc2ccccc2)C(=O)NCC(=O)N[C@H](C(=O)N[C@H](C(=O)N[C@@H](Cc2ccccc2)C(=O)N[C@H](C(=O)N[C@@H](CO)C(=O)O)[C@@H](C)O)C(C)C)[C@@H](C)O)NC1=O [PCSK9_6] (H-WEEYLDYVCGRATKSIPPICFGTVFTS-OH; disulfide 9-20)	certain inhibitory effects on the other two proteases chymotrypsin and elastase	certain inhibitory effects on the other two proteases chymotrypsin and elastase	–	remaining at 1 h, 60 μM (chymotrypsin): 1 ± 0.9%; inhibition at 50 µM [2]: 87 ± 1.1%
–	–	–	–	–	–	–	–	–	–	–	–	–	–	–	–	–	Ac-Cys-Gly-Arg-Ala-Thr-Lys-Ser-Ile-Pro-Pro-Ile-Cys-Phe-Gly-Gly-Ile-Pro-Ile-Gly-Gly-His-Ala-Glu-Gly-Thr-Phe-Thr-Ser-Asp-Val-Ser-Ser-Tyr-Leu-Glu-Gly-Gln-Ala-Ala-Lys-Glu-Phe-Ile-Ala-Trp-Leu-Val-Lys-Gly-Arg-Gly-Gly-Lys-NH2 (Ac-CGRATKSIPPICFGGIPIGGHAEGTFTSDVSSYLEGQAAKEFIAWLVKGRGGK-NH2; disulfide 1-12 (inferred)) [Acetylated and Amidated SEQ ID NO: 198]	–	–	did not show any significant differences in their hypoglycemic activity compared to the unmodified molecules	–
–	–	–	–	–	–	–	–	–	–	–	–	–	–	–	–	–	Ac-Gly-Arg-Cys-Thr-Lys-Ser-Ile-Pro-Pro-Ile-Cys-Phe-Pro-Gly-Gly-Ile-Pro-Ile-Gly-Gly-His-Ala-Glu-Gly-Thr-Phe-Thr-Ser-Asp-Val-Ser-Ser-Tyr-Leu-Glu-Gly-Gln-Ala-Ala-Lys-Glu-Phe-Ile-Ala-Trp-Leu-Val-Lys-Gly-Arg-Gly-Gly-Lys-NH2 (Ac-GRCTKSIPPICFPGGIPIGGHAEGTFTSDVSSYLEGQAAKEFIAWLVKGRGGK-NH2; disulfide 3-11 (inferred)) [Acetylated and Amidated SEQ ID NO: 194]	–	–	did not show any significant differences in their hypoglycemic activity compared to the unmodified molecules	–
–	–	–	–	–	–	–	–	–	–	–	–	–	–	–	–	–	Ac-Gly-Ile-Pro-Ile-Gly-Gly-His-Ala-Glu-Gly-Thr-Phe-Thr-Ser-Asp-Val-Ser-Ser-Tyr-Leu-Glu-Gly-Gln-Ala-Ala-Lys-Glu-Phe-Ile-Ala-Trp-Leu-Val-Lys-Gly-Arg-Gly-Gly-Lys-Gly-Arg-Cys-Thr-Lys-Ser-Ile-Pro-Pro-Ile-Cys-Phe-Pro-NH2 (Ac-GIPIGGHAEGTFTSDVSSYLEGQAAKEFIAWLVKGRGGKGRCTKSIPPICFP-NH2; disulfide 42-50 (inferred)) [Acetylated and Amidated SEQ ID NO: 196]	–	–	did not show any significant differences in their hypoglycemic activity compared to the unmodified molecules	–
–	–	–	–	–	–	–	–	–	–	–	–	–	–	–	–	–	Ac-Gly-Ile-Pro-Ile-Gly-Gly-His-Ala-Glu-Gly-Thr-Phe-Thr-Ser-Asp-Val-Ser-Ser-Tyr-Leu-Glu-Gly-Gln-Ala-Ala-Lys-Glu-Phe-Ile-Ala-Trp-Leu-Val-Lys-Gly-Arg-Gly-Gly-Lys-Gly-Cys-Gly-Arg-Ala-Thr-Lys-Ser-Ile-Pro-Pro-Ile-Cys-Phe-NH2 (Ac-GIPIGGHAEGTFTSDVSSYLEGQAAKEFIAWLVKGRGGKGCGRATKSIPPICF-NH2; disulfide 41-52 (inferred)) [Acetylated and Amidated SEQ ID NO: 200]	–	–	did not show any significant differences in their hypoglycemic activity compared to the unmodified molecules	–
